Earlier results in patent US20030216635A1, “Method and system for monitoring pancreatic pathologies” (priority 2000, published 2003).

Conditions: value substituted into equation 1.3; set up at 4.7 Tesla

## O=C([O-])CN(CCN(CC(=O)[O-])CC(=O)O)CCN(CC(=O)[O-])CC(=O)O.[Gd+3] [GdDTPA, gadolinium-diethylenetriamine-pentaacetic-acid]
  Relaxivity constant R: 4.3 mM^−1 sec ^−1
